The structures appear in SMILES notation.

One series deals with EL4 cells. The series is described as follows: In vitro MTT viability assay of EL4 cells. To be noted: highest concentrations tested, n=3, one-way ANOVA and Tukey HSD. In kind it is cell-based, mouse. As for the experimental part:
Turning now to FIG. 20. FIG. 20 describes the effect of therapeutic agents delivered by EVs of various embodiments as compared to other forms of drug delivery. […] (See, Immordino, et al., Int. J. Nanomedicine 1, 297-315 (2016), the disclosures being incorporated herein by reference.)
EL4 cells were treated over 24 or 48 hours with DOX, DOXIL, DOX-EVs, or unloaded EVs. […] It is important to note that DOX-loaded EVs would not be expected to outperform free DOX in vitro study since their primary benefits (improved biocompatibility and extended release) are critical factors in an in vivo delivery setting.
In vitro viability studies. EL4 cells were plated at 20,000 cells/well in 100 μL of DMEM with 10% FBS. Cells were incubated for 24 hours or 48 hours with the concentrations of DOX, DOXIL or DOX-EVs described in FIG. 20. An MTT assay was performed and cells were incubated with 1 mg/mL of MTT for 1 hour. The crystals were dissolved in 100 μL of DMSO and the absorbance of each well was characterized at 560 nm.
Turning now to FIG. 20. FIG. 20 describes the effect of therapeutic agents delivered by EVs of as compared to other forms of drug delivery. […] (See, Immordino, et al., Int. J. Nanomedicine 1, 297-315 (2016), the disclosures being incorporated herein by reference.)
EL4 cells were treated over 24 or 48 hours with DOX, DOXIL, DOX-EVs, or unloaded EVs. […]
Background: Tetrazolium assays rely on reduction of a dye to a coloured formazan, in cell work by metabolically active cells.

Series [1] can be described thus: Biodistribution: drug content of organs 24 hours after treatment. The note with it: lung, liver, heart, spleen, tumor. Type of series: in vivo, C57BL/6 mice. The procedure:
Turning to FIG. 21C, serum was collected from C57BL/6 mice treated with DOX, DOXIL or DOX-EVs and analyzed for drug content. Concentration of DOX in the serum (n=3) was measured over 12 hours by a series of blood collections and fluorescence quantifications. […] Twenty-four hours after treatment, the mice were sacrificed and their organs were assessed for drug content.
For pharmacokinetics and biodistribution experiments, tumors were established and mice were treated as described above. Tail vein blood collection was completed at the time points indicated and suspended in acidified alcohol. The blood was analyzed for DOX concentration by fluorescence spectroscopy (ex. 485 nm, em. 595 nm). 24 hours post treatment, the mice were sacrificed and the organs were extracted. The organs were cryopulverized and resuspended in acidified alcohol for fluorescence spectroscopy (ex. 485 nm, em. 595 nm) analysis.

Regarding `COc1cccc2c1C(=O)c1c(O)c3c(c(O)c1C2=O)C[C@@](O)(C(=O)CO)C[C@@H]3O[C@H]1C[C@H](N)[C@H](O)[C@H](C)O1` [DOX, doxorubicin], the “Viability of EL4 cells versus controls” value in the series with EL4 cells is listed as “statistically significant (p<0.01) from the controls”. In series [1], the “Accumulation of drug in organs” value is “tends to accumulate in the lung”.

Values taken from US11717480B2, “Extracellular vesicles and methods and uses thereof” (The Regents of the University of California, priority 2016, dated 2023).
